According to ChEMBL document CHEMBL3991601, “The target landscape of clinical kinase drugs” (Science, 2017):
The source made the active and inactive calls. Cut-off read from the data, not from the text of the source, for most assays here: actives have a measured Kd and inactives only a lower limit.

Assays:
[1] = molecular target: Casein kinase I isoform alpha (Homo sapiens, UniProt P48729)
[2] = molecular target: T1, Serine/threonine-protein kinase 3 (Homo sapiens, UniProt Q13188)
T1 sequence (Q13188 whole entry): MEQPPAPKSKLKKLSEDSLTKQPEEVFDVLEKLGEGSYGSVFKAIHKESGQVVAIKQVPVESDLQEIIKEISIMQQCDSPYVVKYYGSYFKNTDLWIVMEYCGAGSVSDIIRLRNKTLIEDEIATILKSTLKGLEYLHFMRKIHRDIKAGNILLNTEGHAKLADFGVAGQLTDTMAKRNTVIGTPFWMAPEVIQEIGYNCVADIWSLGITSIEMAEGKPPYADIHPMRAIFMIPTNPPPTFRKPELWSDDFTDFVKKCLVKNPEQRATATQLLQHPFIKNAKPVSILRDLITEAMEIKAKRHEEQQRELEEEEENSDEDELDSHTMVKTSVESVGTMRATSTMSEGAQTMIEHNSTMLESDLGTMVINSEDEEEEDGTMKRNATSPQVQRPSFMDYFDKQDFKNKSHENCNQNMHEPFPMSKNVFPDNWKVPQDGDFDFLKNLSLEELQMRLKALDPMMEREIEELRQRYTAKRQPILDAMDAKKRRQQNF

[3] = molecular target: T2, Structural maintenance of chromosomes protein 1A (Homo sapiens, UniProt Q14683)
T2 sequence (Q14683 whole entry): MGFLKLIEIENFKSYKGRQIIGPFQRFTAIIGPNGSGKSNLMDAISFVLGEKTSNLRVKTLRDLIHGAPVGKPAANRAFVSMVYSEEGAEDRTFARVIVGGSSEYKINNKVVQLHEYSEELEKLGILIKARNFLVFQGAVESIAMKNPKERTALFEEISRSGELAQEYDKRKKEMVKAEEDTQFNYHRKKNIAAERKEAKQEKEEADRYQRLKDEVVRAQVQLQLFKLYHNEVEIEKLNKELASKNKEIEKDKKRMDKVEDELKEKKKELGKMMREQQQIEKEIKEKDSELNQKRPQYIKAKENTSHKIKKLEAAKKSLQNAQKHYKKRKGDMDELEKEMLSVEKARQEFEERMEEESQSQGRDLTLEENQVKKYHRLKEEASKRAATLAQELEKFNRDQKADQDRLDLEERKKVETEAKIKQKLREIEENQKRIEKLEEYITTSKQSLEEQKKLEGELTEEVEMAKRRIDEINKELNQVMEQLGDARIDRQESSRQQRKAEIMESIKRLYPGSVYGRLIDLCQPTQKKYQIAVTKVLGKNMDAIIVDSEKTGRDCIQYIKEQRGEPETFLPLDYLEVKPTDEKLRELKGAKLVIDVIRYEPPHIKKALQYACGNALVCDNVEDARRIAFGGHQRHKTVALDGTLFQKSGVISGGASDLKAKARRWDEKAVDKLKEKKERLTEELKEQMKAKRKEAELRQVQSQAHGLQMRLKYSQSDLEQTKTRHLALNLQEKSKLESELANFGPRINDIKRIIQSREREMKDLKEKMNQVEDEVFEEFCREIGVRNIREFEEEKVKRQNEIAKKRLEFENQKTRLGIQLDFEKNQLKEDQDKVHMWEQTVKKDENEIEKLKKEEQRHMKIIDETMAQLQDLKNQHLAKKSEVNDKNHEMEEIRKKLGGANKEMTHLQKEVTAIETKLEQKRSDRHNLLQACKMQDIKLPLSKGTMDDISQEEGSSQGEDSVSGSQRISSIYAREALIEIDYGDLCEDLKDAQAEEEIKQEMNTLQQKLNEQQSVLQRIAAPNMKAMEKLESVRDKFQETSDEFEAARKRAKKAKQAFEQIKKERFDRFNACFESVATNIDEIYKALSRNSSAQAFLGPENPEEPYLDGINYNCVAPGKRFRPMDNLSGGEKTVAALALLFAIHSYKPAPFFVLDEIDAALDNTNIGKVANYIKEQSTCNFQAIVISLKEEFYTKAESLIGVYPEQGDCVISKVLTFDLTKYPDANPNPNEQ

[4] = molecular target: Mitogen-activated protein kinase 11 (Homo sapiens, UniProt Q15759)
Chain of Mitogen-activated protein kinase 11 (Q15759 whole entry): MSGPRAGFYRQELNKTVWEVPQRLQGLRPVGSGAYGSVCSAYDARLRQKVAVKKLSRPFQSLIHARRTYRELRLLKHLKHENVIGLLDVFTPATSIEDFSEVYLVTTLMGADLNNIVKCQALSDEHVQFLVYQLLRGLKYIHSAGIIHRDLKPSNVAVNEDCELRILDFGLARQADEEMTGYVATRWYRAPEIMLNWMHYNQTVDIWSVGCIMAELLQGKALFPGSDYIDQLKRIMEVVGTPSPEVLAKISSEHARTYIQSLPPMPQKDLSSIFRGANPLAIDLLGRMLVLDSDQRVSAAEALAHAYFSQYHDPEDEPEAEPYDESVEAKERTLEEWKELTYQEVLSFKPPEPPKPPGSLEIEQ

[5] = molecular target: Serine/threonine-protein kinase MRCK alpha (Homo sapiens, UniProt Q5VT25)
[6] = molecular target: Interleukin-1 receptor-associated kinase 1 (Homo sapiens, UniProt P51617)
Chain of Interleukin-1 receptor-associated kinase 1 (P51617 whole entry): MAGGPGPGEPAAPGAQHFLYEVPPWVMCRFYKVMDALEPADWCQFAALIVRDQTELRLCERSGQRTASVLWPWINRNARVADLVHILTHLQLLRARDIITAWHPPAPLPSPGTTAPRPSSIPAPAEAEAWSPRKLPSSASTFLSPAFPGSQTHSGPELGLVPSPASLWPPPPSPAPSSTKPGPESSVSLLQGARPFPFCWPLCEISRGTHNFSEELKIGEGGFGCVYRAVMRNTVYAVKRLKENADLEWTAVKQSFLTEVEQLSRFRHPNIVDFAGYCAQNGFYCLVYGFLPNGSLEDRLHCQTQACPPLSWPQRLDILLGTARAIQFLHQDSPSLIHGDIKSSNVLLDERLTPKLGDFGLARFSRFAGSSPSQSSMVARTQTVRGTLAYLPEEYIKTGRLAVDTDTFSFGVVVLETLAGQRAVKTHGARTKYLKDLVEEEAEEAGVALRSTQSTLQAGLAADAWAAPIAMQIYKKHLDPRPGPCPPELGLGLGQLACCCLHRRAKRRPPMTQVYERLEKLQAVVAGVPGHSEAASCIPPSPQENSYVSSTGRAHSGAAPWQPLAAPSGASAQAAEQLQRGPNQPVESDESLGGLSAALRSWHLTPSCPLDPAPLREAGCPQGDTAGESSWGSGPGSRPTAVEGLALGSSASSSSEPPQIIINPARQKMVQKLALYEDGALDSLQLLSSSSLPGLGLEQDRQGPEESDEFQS

[7] = molecular target: Maternal embryonic leucine zipper kinase (Homo sapiens, UniProt Q14680)
Chain of Maternal embryonic leucine zipper kinase (Q14680 whole entry): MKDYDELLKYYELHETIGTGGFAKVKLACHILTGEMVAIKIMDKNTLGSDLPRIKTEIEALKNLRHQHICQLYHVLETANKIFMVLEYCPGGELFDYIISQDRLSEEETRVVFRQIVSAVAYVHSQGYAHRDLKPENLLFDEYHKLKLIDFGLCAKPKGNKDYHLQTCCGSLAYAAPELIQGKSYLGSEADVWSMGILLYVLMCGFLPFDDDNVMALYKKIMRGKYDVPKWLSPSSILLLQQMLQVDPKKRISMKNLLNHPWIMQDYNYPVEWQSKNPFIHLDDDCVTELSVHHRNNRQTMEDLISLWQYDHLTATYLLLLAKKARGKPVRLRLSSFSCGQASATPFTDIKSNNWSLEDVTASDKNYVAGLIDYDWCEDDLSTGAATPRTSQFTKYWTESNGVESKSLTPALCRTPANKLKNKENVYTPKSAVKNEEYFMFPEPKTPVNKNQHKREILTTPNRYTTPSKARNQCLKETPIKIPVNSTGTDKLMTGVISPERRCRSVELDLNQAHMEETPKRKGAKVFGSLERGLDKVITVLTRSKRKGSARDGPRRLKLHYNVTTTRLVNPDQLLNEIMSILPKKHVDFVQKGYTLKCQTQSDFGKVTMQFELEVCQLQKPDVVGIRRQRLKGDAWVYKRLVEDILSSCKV

[8] = molecular target: Tyrosine-protein kinase Fyn (Homo sapiens, UniProt P06241)
Chain of Tyrosine-protein kinase Fyn (P06241 whole entry): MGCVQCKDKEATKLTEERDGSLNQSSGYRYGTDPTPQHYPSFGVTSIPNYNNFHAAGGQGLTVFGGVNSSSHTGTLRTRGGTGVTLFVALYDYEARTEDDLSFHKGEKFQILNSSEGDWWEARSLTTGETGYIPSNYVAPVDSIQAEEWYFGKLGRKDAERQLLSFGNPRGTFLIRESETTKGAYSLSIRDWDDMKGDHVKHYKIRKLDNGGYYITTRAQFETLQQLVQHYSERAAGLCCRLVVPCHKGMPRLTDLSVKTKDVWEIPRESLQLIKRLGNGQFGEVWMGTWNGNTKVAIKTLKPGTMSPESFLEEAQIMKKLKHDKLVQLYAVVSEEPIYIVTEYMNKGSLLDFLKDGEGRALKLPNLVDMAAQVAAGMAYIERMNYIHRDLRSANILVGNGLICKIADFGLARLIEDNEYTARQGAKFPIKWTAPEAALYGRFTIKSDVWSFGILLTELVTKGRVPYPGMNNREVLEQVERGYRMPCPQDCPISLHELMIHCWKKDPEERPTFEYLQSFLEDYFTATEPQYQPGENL

Ephrin type-A receptor 4 = Ephrin type-A receptor 4 (Homo sapiens, UniProt P54764)
[9] = molecular target: Proto-oncogene tyrosine-protein kinase Src (Homo sapiens, UniProt P12931)
Chain of Proto-oncogene tyrosine-protein kinase Src (P12931 2-536 limits assumed): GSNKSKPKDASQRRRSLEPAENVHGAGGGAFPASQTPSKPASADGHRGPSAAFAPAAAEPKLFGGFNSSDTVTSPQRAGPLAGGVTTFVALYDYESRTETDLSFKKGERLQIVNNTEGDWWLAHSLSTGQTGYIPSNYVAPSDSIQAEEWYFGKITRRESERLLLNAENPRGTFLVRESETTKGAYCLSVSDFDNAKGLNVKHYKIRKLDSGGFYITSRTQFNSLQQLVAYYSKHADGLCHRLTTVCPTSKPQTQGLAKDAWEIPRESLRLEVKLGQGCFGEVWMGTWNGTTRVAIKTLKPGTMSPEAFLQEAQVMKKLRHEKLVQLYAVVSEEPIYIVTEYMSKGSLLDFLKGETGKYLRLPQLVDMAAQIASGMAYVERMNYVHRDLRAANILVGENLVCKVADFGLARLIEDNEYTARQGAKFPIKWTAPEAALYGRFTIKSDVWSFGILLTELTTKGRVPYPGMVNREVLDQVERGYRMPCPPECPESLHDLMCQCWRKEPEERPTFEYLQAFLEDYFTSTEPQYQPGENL

[10] = molecular target: Adenylate kinase 2, mitochondrial (Homo sapiens, UniProt P54819)
[11] = molecular target: Fibroblast growth factor receptor 1 (Homo sapiens, UniProt P11362)
Chain of Fibroblast growth factor receptor 1 (P11362 whole entry): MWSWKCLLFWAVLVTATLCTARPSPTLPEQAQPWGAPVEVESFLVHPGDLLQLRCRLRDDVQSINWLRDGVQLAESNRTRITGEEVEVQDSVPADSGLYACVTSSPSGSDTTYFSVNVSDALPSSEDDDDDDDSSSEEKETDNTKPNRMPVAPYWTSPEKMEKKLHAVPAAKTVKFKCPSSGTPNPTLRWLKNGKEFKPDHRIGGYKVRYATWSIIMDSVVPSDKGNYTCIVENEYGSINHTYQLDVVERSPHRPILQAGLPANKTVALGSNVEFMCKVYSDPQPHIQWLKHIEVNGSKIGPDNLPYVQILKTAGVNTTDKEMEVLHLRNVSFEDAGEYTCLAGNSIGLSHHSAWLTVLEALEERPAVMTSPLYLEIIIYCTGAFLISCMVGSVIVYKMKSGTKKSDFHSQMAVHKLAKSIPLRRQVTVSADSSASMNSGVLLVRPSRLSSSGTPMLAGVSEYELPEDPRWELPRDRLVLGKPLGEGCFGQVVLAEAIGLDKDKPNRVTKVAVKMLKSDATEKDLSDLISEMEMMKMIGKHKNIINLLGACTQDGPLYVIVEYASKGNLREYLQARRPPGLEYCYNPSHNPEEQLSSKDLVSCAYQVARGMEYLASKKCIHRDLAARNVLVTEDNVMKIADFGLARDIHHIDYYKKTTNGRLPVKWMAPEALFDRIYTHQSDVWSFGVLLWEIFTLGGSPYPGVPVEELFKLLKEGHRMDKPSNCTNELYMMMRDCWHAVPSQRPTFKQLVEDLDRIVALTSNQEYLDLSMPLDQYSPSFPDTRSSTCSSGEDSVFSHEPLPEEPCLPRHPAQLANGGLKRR

[12] = molecular target: Ribosomal protein S6 kinase alpha-4 (Homo sapiens, UniProt O75676)
Chain of Ribosomal protein S6 kinase alpha-4 (O75676 whole entry): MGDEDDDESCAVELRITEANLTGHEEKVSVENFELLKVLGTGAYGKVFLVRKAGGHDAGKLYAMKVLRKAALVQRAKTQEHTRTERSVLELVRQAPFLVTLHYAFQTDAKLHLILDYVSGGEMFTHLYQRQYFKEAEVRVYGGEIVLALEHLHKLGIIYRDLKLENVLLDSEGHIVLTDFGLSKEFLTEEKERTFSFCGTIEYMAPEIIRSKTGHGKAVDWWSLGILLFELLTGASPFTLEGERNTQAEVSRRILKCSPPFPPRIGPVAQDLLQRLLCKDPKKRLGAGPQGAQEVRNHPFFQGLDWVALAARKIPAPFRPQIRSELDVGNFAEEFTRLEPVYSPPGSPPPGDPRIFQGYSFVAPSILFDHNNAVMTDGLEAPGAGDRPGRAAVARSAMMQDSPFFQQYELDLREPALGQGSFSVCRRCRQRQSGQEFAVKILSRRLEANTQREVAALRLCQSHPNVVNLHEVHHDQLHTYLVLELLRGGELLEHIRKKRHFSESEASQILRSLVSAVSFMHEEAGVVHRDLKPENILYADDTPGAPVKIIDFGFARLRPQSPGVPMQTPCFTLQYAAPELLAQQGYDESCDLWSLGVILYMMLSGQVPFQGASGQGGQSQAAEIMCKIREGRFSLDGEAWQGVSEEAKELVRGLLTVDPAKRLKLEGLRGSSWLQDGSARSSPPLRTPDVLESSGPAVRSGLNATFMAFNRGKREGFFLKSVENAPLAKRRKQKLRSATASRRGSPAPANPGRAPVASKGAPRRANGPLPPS

[13] = molecular target: Tyrosine-protein kinase FRK (Homo sapiens, UniProt P42685)
Note: in the data inactive means no Kd found up to 30 µM.

Chain of Casein kinase I isoform alpha (P48729 whole entry, canonical isoform): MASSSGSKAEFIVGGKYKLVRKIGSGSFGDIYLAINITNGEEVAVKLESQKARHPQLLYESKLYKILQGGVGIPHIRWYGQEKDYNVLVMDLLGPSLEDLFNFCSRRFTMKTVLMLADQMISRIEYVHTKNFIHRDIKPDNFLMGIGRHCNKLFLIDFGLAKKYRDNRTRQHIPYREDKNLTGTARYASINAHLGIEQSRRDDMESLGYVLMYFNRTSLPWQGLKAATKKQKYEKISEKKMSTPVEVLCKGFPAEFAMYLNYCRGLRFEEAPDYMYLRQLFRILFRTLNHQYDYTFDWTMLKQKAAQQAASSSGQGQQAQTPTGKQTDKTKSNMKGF

Structure (SMILES)	Kd [1]	Kd [2]	Kd [3]	Kd [4]	Kd [5]	Kd [6]	Kd [7]	Kd [8]	Kd (Ephrin type-A receptor 4)	Kd [9]	Kd [10]	Kd [11]	Kd [12]	Kd [13]
C[C@@H]1COC(Nc2ccc3ncnc(Nc4ccc(OCc5nccs5)c(Cl)c4)c3c2)=N1 [VARLITINIB]	> 30 µM (inactive)	> 30 µM (inactive)	> 30 µM (inactive)	> 30 µM (inactive)	> 30 µM (inactive)	> 30 µM (inactive)	> 30 µM (inactive)	> 30 µM (inactive)	> 30 µM (inactive)	> 30 µM (inactive)	> 30 µM (inactive)	> 30 µM (inactive)	> 30 µM (inactive)	> 30 µM (inactive)
COc1ccc(-c2ccc3ncc4c(c3c2)n(-c2ccc(N3CCNCC3)c(C(F)(F)F)c2)c(=O)n4C)cn1 [BGT-226 FREE BASE]	> 30 µM (inactive)	> 30 µM (inactive)	> 30 µM (inactive)	> 30 µM (inactive)	> 30 µM (inactive)	> 30 µM (inactive)	4.08 µM (active)	> 30 µM (inactive)	> 30 µM (inactive)	> 30 µM (inactive)	> 30 µM (inactive)	> 30 µM (inactive)	> 30 µM (inactive)	> 30 µM (inactive)
Cc1cc(Nc2nc(N[C@@H](C)c3ncc(F)cn3)ncc2Cl)n[nH]1 [AZD-1480]	> 30 µM (inactive)	0.86 µM (active)	> 30 µM (inactive)	> 30 µM (inactive)	> 30 µM (inactive)	> 30 µM (inactive)	> 30 µM (inactive)	> 30 µM (inactive)	> 30 µM (inactive)	> 30 µM (inactive)	> 30 µM (inactive)	0.777 µM (active)	> 30 µM (inactive)	> 30 µM (inactive)
CCc1cc2c(cc1N1CCC(N3CCOCC3)CC1)C(C)(C)c1[nH]c3cc(C#N)ccc3c1C2=O [ALECTINIB]	> 30 µM (inactive)	> 30 µM (inactive)	> 30 µM (inactive)	> 30 µM (inactive)	> 30 µM (inactive)	> 30 µM (inactive)	> 30 µM (inactive)	> 30 µM (inactive)	> 30 µM (inactive)	> 30 µM (inactive)	> 30 µM (inactive)	> 30 µM (inactive)	> 30 µM (inactive)	> 30 µM (inactive)
FC(F)(F)c1ccc(CNc2ccc(Cc3c[nH]c4ncc(Cl)cc34)cn2)cn1 [PEXIDARTINIB]	> 30 µM (inactive)	> 30 µM (inactive)	> 30 µM (inactive)	> 30 µM (inactive)	> 30 µM (inactive)	> 30 µM (inactive)	> 30 µM (inactive)	> 30 µM (inactive)	> 30 µM (inactive)	> 30 µM (inactive)	> 30 µM (inactive)	> 30 µM (inactive)	> 30 µM (inactive)	> 30 µM (inactive)
